From patent US11135186B2, “Regulators of the endoplasmic reticulum proteostasis network” (The Scripps Research Institute, priority 2015, dated 2021)

Tests used:
HEK293T-Rex cells = assay: mRNA-Seq transcriptional profiling and geneset analysis in HEK293T-Rex cells; format: cell-based, human; conditions: for activation of the ATF6 geneset relative to Tg: mRNA-seq geneset analysis; for BiP mRNA-Seq fold change (relative to Vh) / GRP94 mRNA-Seq fold change (relative to Vh) / SEL1L mRNA-Seq fold change (relative to Vh): ATF6-selective gene; for BiP mRNA-Seq fold change (relative to Vh) / GRP94 mRNA-Seq fold change (relative to Vh) / SEL1L mRNA-Seq fold change (relative to Vh) / DNAJB1 mRNA-Seq fold change (relative to Vh) / HSPA1A mRNA-Seq fold change (relative to Vh) / HSPA8 mRNA-Seq fold change (relative to Vh) / ASNS mRNA-Seq fold change (relative to Vh) / DDIT3 (CHOP) mRNA-Seq fold change (relative to Vh) / TrIB3 mRNA-Seq fold change (relative to Vh) / ERdj3 mRNA-Seq fold change (relative to Vh) / HYOU1 mRNA-Seq fold change (relative to Vh) / p58IPK mRNA-Seq fold change (relative to Vh) / DNAJC10 mRNA-Seq fold change (relative to Vh) / HSPA13 mRNA-Seq fold change (relative to Vh) / SEC24D mRNA-Seq fold change (relative to Vh): compounds 10 μM, Tg 1 μM; for DNAJB1 mRNA-Seq fold change (relative to Vh) / HSPA1A mRNA-Seq fold change (relative to Vh) / HSPA8 mRNA-Seq fold change (relative to Vh): HSF1 target gene; for ASNS mRNA-Seq fold change (relative to Vh) / DDIT3 (CHOP) mRNA-Seq fold change (relative to Vh) / TrIB3 mRNA-Seq fold change (relative to Vh): PERK target gene; for ERdj3 mRNA-Seq fold change (relative to Vh) / HYOU1 mRNA-Seq fold change (relative to Vh) / p58IPK mRNA-Seq fold change (relative to Vh): XBP1s- or ATF6-target gene; for DNAJC10 mRNA-Seq fold change (relative to Vh) / HSPA13 mRNA-Seq fold change (relative to Vh) / SEC24D mRNA-Seq fold change (relative to Vh): XBP1s-selective gene
Protocol: HEK293T-Rex and HEK293^DAX cells in 12-well plates were treated for 6 h with vehicle, 1 μM Tg, 10 μM TMP (in HEK293^DAX), or 10 μM 132, 147 or 263 in biological triplicate at 37° C. Cells were harvested, and RNA was extracted using the RNeasy Mini Kit (Qiagen). Total RNA was quantified using NanoDrop (ND-1000). Samples were run on the Illuina HiSeq system.
Single end, 100 bp-long reads from RNA-Seq experiments were aligned to the GRCh37.p13 human genome reference assembly using SeqMan NGen 11.2.1 (DNAStar, Inc.). The assembly data were then imported into ArrayStar with QSeq (DNAStar, Inc.) to quantify the gene expression levels. The sequence counts were normalized to reads per kilobase per million (RPKM) after filtering out non-mRNA sequence features. The statistical significance of the difference between the expression levels of a gene under different conditions was assessed using a Student's t-test with the Benjamini-Hochberg multiple testing correction.
ATF6- and XBP1s-selective target genes were identified from transcriptional profiles of HEK293D^X cells following stress-independent activation of TMP-dependent DHFR-ATF6 and/or tetracycline inducible XBP1s, as previously described^4. PERK-selective target genes were identified from^8. Only ATF6-, XBP1s- or PERK-selective genes induced >1.5 fold in Tg-treated samples were used in this analysis. The log transformed fold-increase of these target genes in HEK293T-Rex cells treated with the respective ER proteostasis regulators were then normalized to the log transformed fold increase of these genes induced by Tg treatment. The plots shown in FIG. 5b-e were prepared as box and whisker plots using Kaleidograph. Differential activation of the ATF6, XBP1s, and PERK genesets was assessed by one-way ANOVA and significance of pairwise comparison confirmed by unpaired t-test. An analogous strategy was employed to prepare the heat map using transcriptional data from the MGE analysis.

[1] = tested on: ALLC interaction with BiP and GRP94; assay: In situ cross-linking and ALLC co-immunopurification in ALMC-2 cells; format: cell-based, human; conditions: 10 μM, 16 h, cross-linking
Protocol: For immunoprecipitations, cells were washed with PBS then cross-linked with 0.5 mM Dithiobis(succinimidyl propionate) (DSP) for 30 min at room temperature. The reaction was quenched by addition of 100 mM Tris pH 7.5, then RIPA buffer was added to the cell pellets for lysis. Lysates were cleared by centrifugation at centrifuged at 10000×g for 15 min. Proteins were immunopurified using sheep polyclonal free λ LC antibody (Bethyl Laboratories A80-127A) that was covalently conjugated to CNBr-activated Sepharose 4B (GE Healthcare). After four washes in RIPA buffer, proteins were eluted by boiling in Laemmli buffer+100 mM DTT and samples were separated by SDS-PAGE and transferred to nitrocellulose membranes. Blots were probed with the following primary antibodies: monoclonal mouse M2 anti-FLAG (1:500, Sigma), polyclonal rabbit anti-TTR (1:1000, Dako), rabbit polyclonal anti-human lambda light chain (1:1000, Bethyl Laboratories A90-112A), mouse monoclonal anti-Grp78 (1:500, Santa Cruz Biotechnology sc-166490), rabbit polyclonal anti-Grp94 (1:1000, GeneTex GTX103203), rabbit polyclonal anti-PDIA4 (1:1000, Protein Tech Group 14712-1-AP), mouse monoclonal anti-ATF6a (1-7) (BioAcademia, 1:1000), rabbit anti-phospho eIF2α (CellSignaling #9721, 1:500), mouse anti-eIF2α (Abcam ab5369, 1:1000) and mouse monoclonal anti β-actin (1:10000, Sigma).

[2] = tested on: XBP1-RLuc reporter (IRE1/XBP1s arm of the UPR); assay: XBP1-RLuc splicing reporter, 1536-well screen in HEK293T-Rex cells; format: cell-based; conditions: % Tg (500 nM) activation, triplicate confirmation screen at 6.8 μM, 18 h
Text: To evaluate the selectivity of our screening hits for ATF6, we employed an alternative luciferase reporter to measure activation of the IRE1/XBP1s arm of the UPR. This reporter contains Renilla luciferase (RLuc) expressed out of frame downstream of the XBP1 splice site, preventing RLuc translation in the absence of stress (FIG. 2b)^36,37. In response to IRE1 activation, the 26-nt XBP1 intron is removed, producing a frame shift that allows for RLuc translation and activity. Robust dose-dependent activation of the XBP1-RLuc reporter upon addition of the ER stressors Tg and Tm was confirmed in HEK293T-Rex cells stably expressing the XBP1-RLuc reporter, producing a Z′ score of 0.75 for Tg.
HEK293T-Rex cells incorporating either the ERSE-FLuc or XBP1s-RLuc reporters were collected by trypsinization and resuspended at a density of 500,000 cells per mL. The assay was started by dispensing 5 μL of cell suspension into each well of white, solid-bottom 1536-well plates using a flying reagent dispenser (FRD) and placed into an online incubator 3 h. Cells were then treated with 34 nL/well of either test compounds to give final concentrations of 6.8 μM, DMSO (Low control, final concentration 0.68%, 0% activation) or […] of Delta-7 thapsigargin (High control, final concentration 500 nM, 100% activation). Plates were incubated for 18 h at 37° C., removed from the incubator and equilibrated to room temperature for 10 min. Luciferase activity was detected by addition of 5 μL of ONE-Glo reagent (Promega) to each well. After a 10 min incubation time, light emission was measured with the ViewLux reader (PerkinElmer). The percent activation of each test compound was calculated as follows: % Activation=100*(Test Compound−Median Low Control)/(Median High Control ˜Median Low Control).

SMILES | slope of log2 mRNA fold change with compound versus with Tg (HEK293T-Rex cells; 10 μM, 6 h, ER proteostasis genes) | activation of the ATF6 geneset relative to Tg (HEK293T-Rex cells; 10 μM) [%] | BiP mRNA-Seq fold change (relative to Vh) (HEK293T-Rex cells; 6 h) [fold] | GRP94 mRNA-Seq fold change (relative to Vh) (HEK293T-Rex cells; 6 h) [fold] | SEL1L mRNA-Seq fold change (relative to Vh) (HEK293T-Rex cells; 6 h) [fold] | DNAJB1 mRNA-Seq fold change (relative to Vh) (HEK293T-Rex cells; 6 h) [fold] | HSPA1A mRNA-Seq fold change (relative to Vh) (HEK293T-Rex cells; 6 h) [fold] | HSPA8 mRNA-Seq fold change (relative to Vh) (HEK293T-Rex cells; 6 h) [fold] | ASNS mRNA-Seq fold change (relative to Vh) (HEK293T-Rex cells; 6 h) [fold] | DDIT3 (CHOP) mRNA-Seq fold change (relative to Vh) (HEK293T-Rex cells; 6 h) [fold] | TrIB3 mRNA-Seq fold change (relative to Vh) (HEK293T-Rex cells; 6 h) [fold] | ERdj3 mRNA-Seq fold change (relative to Vh) (HEK293T-Rex cells; 6 h) [fold] | HYOU1 mRNA-Seq fold change (relative to Vh) (HEK293T-Rex cells; 6 h) [fold] | p58IPK mRNA-Seq fold change (relative to Vh) (HEK293T-Rex cells; 6 h) [fold] | DNAJC10 mRNA-Seq fold change (relative to Vh) (HEK293T-Rex cells; 6 h) [fold] | HSPA13 mRNA-Seq fold change (relative to Vh) (HEK293T-Rex cells; 6 h) [fold] | SEC24D mRNA-Seq fold change (relative to Vh) (HEK293T-Rex cells; 6 h) [fold] | ALLC interaction with BiP and GRP94 [1] | % XBP1-RLuc activation [2] [%]
Cc1ccc(O)c(N/C=C/C(=O)c2ccc(F)cc2)c1 [Compound 132] | 1 | 75 | 9.1 | 3.5 | 4.9 | 3.0 | 9.3 | 1.5 | 2.7 | 10.6 | 5.8 | 2.9 | 3.6 | 3.7 | 1.4 | 2.6 | 3.1 | increased | 10.3 ± 7.9
O=[N+]([O-])c1ccc(N/N=C/c2ccccc2O)cc1 [Compound 263] | – | 50 | 5.7 | 2.5 | 2.7 | 1.4 | 2.5 | 1.3 | 1.5 | 2.0 | 1.3 | 2.4 | 2.7 | 2.9 | 1.3 | 1.7 | 2.1 | unchanged | 2.4 ± 1.0
Cc1ccc(O)c(NC(=O)CCc2ccccc2)c1 [Compound 147] | – | 45 | 3.3 | 1.8 | 2.2 | 1.6 | 3.2 | 1.3 | 1.0 | 1.7 | 1.0 | 1.7 | 1.8 | 1.8 | 1.1 | 1.2 | 1.4 | increased | 17.5 ± 1.9
